Test results from PubChem BioAssay AID732 (Emory University Molecular Libraries Screening Center, 2007).
“And” between values parts separate entries of the source, which are not always exact repeats. Equal entries are not always repeated. The source made the active and inactive calls. No rule for the calls is given here.

System: in vivo angiogenesis, blood vessel count
Test: reduction of blood vessel formation in vivo – HTS, in vivo study (AID 732);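 also: zebrafish embryos dosed at one day post fertilization; 0% = reference inhibitor and 100% = plate mean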
Settings: stronger effect = lower value;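 tested at 30 µM in the well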

Compound | vessel count % control
c1ccc2cc(CC3=NCCN3)ccc2c1 | 120% (inactive)
CN=C(N)NCCC[C@H](N)C(=O)O | 93% (inactive)
O=C(O)CN(CCOCCOCCN(CC(=O)O)CC(=O)O)CC(=O)O | 103% (inactive)
O=C(O)Cc1cnc[nH]1 | 110% (inactive)
Cn1c(=O)c2[nH]c(-c3ccccc3)nc2n(C)c1=O | 117% (inactive)
CCCNCC(O)COc1ccccc1C(=O)CCc1ccccc1 (configuration not stated) | 102% (inactive)
Clc1cc(I)cc(Cl)c1NC1=NCCN1 | 80.6% (inactive)
Oc1ccc2c3c1O[C@H]1c4[nH]c5c(c4C[C@@]4(O)[C@@H](C2)N(CC2CC2)CC[C@]314)C[C@@]1(O)[C@H]2Cc3ccc(O)c4c3[C@@]1(CCN2CC1CC1)[C@H]5O4 | 81.2% (inactive)
CC(C)(C)c1ccc(C(O)CCCN2CCC(C(O)(c3ccccc3)c3ccccc3)CC2)cc1 (configuration not stated) | 99.8% (inactive)
CC1(C)NC(=O)N(c2ccc([N+](=O)[O-])c(C(F)(F)F)c2)C1=O | 91.7% (inactive)
CCCN(CCC)[C@H]1CCc2c(F)ccc(O)c2C1 | 93.1% (inactive)
CC(C)(C)NCC(O)c1ccccc1Cl (configuration not stated) | 130% (inactive)
NC(CP(=O)(O)O)C(=O)O (configuration not stated) | 103% (inactive)
COc1ccc(OC)c(C(O)C(C)N)c1 (configuration not stated) | 94.8% (inactive)
CC(/C=C/c1cccc(Oc2ccc(F)cc2)c1)N(O)C(N)=O (configuration not stated) | 100% (inactive)
O=[N+]([O-])c1ccc(CSc2ncnc3c2ncn3[C@@H]2O[C@H](CO)[C@H](O)C2O)cc1 (some centres not stated) | 80.2% (inactive)
NC(Cc1ccc(N(CCCl)CCCl)cc1)C(=O)O (configuration not stated) | 123% (inactive)
CC(C)N(CCC(=O)c1ccc2ccccc2c1)Cc1ccccc1 | 0% (inactive)
CSc1ccc2c(c1)N(CCC1CCCCN1C)c1ccccc1S2 (configuration not stated) | 102% (inactive)
O=C(CCCN1CCC(O)(c2cccc(C(F)(F)F)c2)CC1)c1ccc(F)cc1 | 60.2% (inactive)
O=Nc1c(-c2c(O)[nH]c3ccc([N+](=O)[O-])cc23)[nH]c2ccc(Br)cc12 | 79.3% (inactive)
CCN(CC)CCOCCOC(=O)C1(c2ccccc2)CCCC1 | 108% (inactive)
CCCN1CCC[C@@H]2Cc3[nH]ncc3C[C@H]21 | 129% (inactive) and 112% (inactive)
CCN(CC)C(C)C(=O)N1c2ccccc2Sc2ccccc21 (configuration not stated) | 94.9% (inactive)
C=Cc1c(C)c2cc3[nH]c(cc4nc(cc5nc(cc1[nH]2)C(C)=C5CCC(=O)O)C(CCC(=O)O)=C4C)c(C)c3C=C | 112% (inactive)

Compound | vessel count % control
Cn1cc(C(=O)OCC2CCN(CCNS(C)(=O)=O)CC2)c2ccccc21 | 106% (inactive)
COc1ccc2c(c1)/C(=C/c1cnc[nH]1)C(=O)N2 | 73.2% (inactive)
CC(C)COC(=O)OCN1C(=O)CN(CCN2CC(=O)N(COC(=O)OCC(C)C)C(=O)C2)CC1=O | 104% (inactive)
C[N+]1(C)CCOC(O)(c2ccc(-c3ccc(C4(O)C[N+](C)(C)CCO4)cc3)cc2)C1 (configuration not stated) | 103% (inactive)
CC1Cc2cc3c(cc2C(c2ccc(N)cc2)=NN1)OCO3 (configuration not stated) | 105% (inactive)
CC(N)=NCCC[C@H](N)C(=O)O | 134% (inactive)
COc1ccc2[nH]c(I)c(CCNC(C)=O)c2c1 | 107% (inactive)
C[C@H](Cc1ccc2c(c1)OC(C(=O)O)(C(=O)O)O2)NC[C@H](O)c1cccc(Cl)c1 | 98.2% (inactive)
CC(=O)[C@H]1CCC2C3CC=C4C[C@@H](OS(=O)(=O)O)CC[C@]4(C)C3CC[C@@]21C (some centres not stated) | 85% (inactive)
O=C(O)c1cc([N+](=O)[O-])ccc1NCCCc1ccccc1 | 92.5% (inactive)
Cc1cccc(C)c1OCC(C)N (configuration not stated) | 99.4% (inactive)
COCc1nc2c([nH]1)c(=O)n(C)c(=O)n2CC(C)C | 93% (inactive)
Nc1nc2ccc(OC(F)(F)F)cc2s1 | 77% (inactive)
NCC(CP(=O)(O)O)c1ccc(Cl)cc1 (configuration not stated) | 116% (inactive)
CN(C)CCC(c1ccc(Cl)cc1)c1ccccn1 (configuration not stated) | 128% (inactive)
COc1ccc2c(c1)c(CC(=O)N1CCOCC1)c(C)n2C(=O)c1ccc(Cl)cc1 | 55% (inactive)
CNC1(C)C2CCC(C2)C1(C)C (configuration not stated) | 107% (inactive)
N#C/C(=C\c1ccc(O)c(O)c1)C(=O)Nc1ccccc1 | 104% (inactive)
C[C@]12CC[C@@H]3c4ccc(O)cc4CC[C@H]3[C@@H]1CCC2=O | 111% (inactive)
O[Si](CCCN1CCCCC1)(c1ccc(F)cc1)C1CCCCC1 (configuration not stated) | 107% (inactive)
CC(C)(C)c1cc(/C=C(\C#N)C(N)=S)cc(C(C)(C)C)c1O | 0% (inactive)
CCNC(=O)C1OC(n2cnc3c(NCc4ccccc4)ncnc32)C(O)C1O (configuration not stated) | 110% (inactive)
CCCCCCCCCCCCCCSCC(=O)O | 93.7% (inactive)
O=C(OC1CCN(CCCl)CC1)C(c1ccccc1)c1ccccc1 | 102% (inactive)
COc1ccc(-n2nc(C(F)(F)F)cc2-c2ccc(Cl)cc2)cc1 | 126% (inactive)

Compound | vessel count % control
CCN(CC)c1ncnc2c1ncn2[C@@H]1O[C@H](COP(=O)(O)OP(=O)(O)C(Br)(Br)P(=O)(O)O)[C@@H](O)[C@H]1O | 81.9% (inactive)
O=C(N[C@@H](Cc1ccccc1)C(=O)CCl)OCc1ccccc1 | 0% (inactive)
CC[N+](CC)(CC)CC | 112% (inactive)
CNC(=O)[C@H]1O[C@@H](n2cnc3c(NCc4cccc(I)c4)ncnc32)C(O)[C@H]1O (some centres not stated) | 83.3% (inactive)
CC(=O)[C@@]1(O)CC[C@H]2[C@@H]3CCC4=CC(=O)CC[C@]4(C)[C@H]3CC[C@@]21C | 98.7% (inactive)
CNC(=O)c1cc2c(cn1)[nH]c1ccccc12 | 101% (inactive)
COc1cc2c(cc1OC)[C@@H](c1ccccc1)CN(C)CC2 | 91.5% (inactive)
C[N+]1(C)CCc2cc3c(cc2[C@H]1[C@@H]1OC(=O)c2c1ccc1c2OCO1)OCO3 | 85.4% (inactive)
CNC[C@H](O)c1cccc(O)c1 | 109% (inactive)
O=C(Cc1ccc(Cl)c(Cl)c1)OCCN1CCCC1 | 81.9% (inactive)
CCCN(CCC)C1CCc2ccc(O)cc2C1 (configuration not stated) | 87.6% (inactive)
COCCc1ccc(OCC(O)CNC(C)C)cc1 (configuration not stated) | 128% (inactive)
CCCCC#Cc1nc(N)c2ncn([C@@H]3O[C@H](C(=O)NCC)[C@@H](O)[C@H]3O)c2n1 | 110% (inactive)
O=c1c(-c2ccc(O)cc2)coc2cc(O)cc(O)c12 | 107% (inactive)
O=C1NC(c2cccc([N+](=O)[O-])c2)=CCN1c1ccccc1O | 91.3% (inactive)
C[C@H]1C2Cc3ccc(O)cc3C1(C)CCN2CC1CC1 (some centres not stated) | 70.9% (inactive)
Cn1cnc2c1c(=O)[nH]c(=O)n2C | 118% (inactive)
CN(C)CCOC(C)(c1ccccc1)c1ccccn1 (configuration not stated) | 95.7% (inactive)
COc1ccc(-c2ccc(N)[n+](CCCC(=O)O)n2)cc1 | 105% (inactive)
CC(C)c1cccc(C(C)C)c1O | 99.6% (inactive)
Cn1c(=O)c2[nH]c(C3CCCC3)nc2n(C)c1=O | 104% (inactive)
Cc1nc(N=Nc2ccc(C(=O)O)cc2)c(COP(=O)(O)O)c(C=O)c1O | 93.9% (inactive)
CCCN1C[C@H](CSC)C[C@@H]2c3cccc4[nH]cc(c34)C[C@H]21 | 96.8% (inactive)
O=c1[nH]c2cc(Cl)ccc2c(O)c1-c1ccc(Oc2ccccc2)cc1 | 66.8% (inactive)
CCN(CC)CCCCCCCCOC(=O)c1cc(OC)c(OC)c(OC)c1 | 91.4% (inactive)

Compound | vessel count % control
CCOC(=O)N1CCC(=C2c3ccc(Cl)cc3CCc3cccnc32)CC1 | 103% (inactive)
O=C(O)CCCCCCCC(=O)O | 95.3% (inactive)
Cc1ccccc1CNc1ncnc2c1ncn2C1OC(CO)C(O)C1O (configuration not stated) | 93.1% (inactive)
NCC1OC(O[C@@H]2[C@H](O)C(OC3C(O)C(N)CC(N)C3OC3OC(CO)C(O)C(O)C3N)O[C@@H]2CO)C(N)C(O)C1O (some centres not stated) | 116% (inactive)
CC1=C(CC(=O)O)c2cc(F)ccc2/C1=C\c1ccc(S(C)(=O)=O)cc1 | 112% (inactive)
O=c1[nH]c2ccccc2n1C1CCN(CCCC(c2ccc(F)cc2)c2ccc(F)cc2)CC1 | 52.9% (inactive)
CC(C)NCC(O)COc1ccc(CC(N)=O)cc1 (configuration not stated) | 102% (inactive)
O=c1c(O)c(-c2ccc(O)cc2O)oc2cc(O)cc(O)c12 | 108% (inactive)
O=c1[nH]c2ccccc2c2ccccc12 | 103% (inactive)
O=c1cc(O)cc(/C=C/c2ccc(O)c(O)c2)o1 | 122% (inactive)
CC(=O)OC(C)C[N+](C)(C)C (configuration not stated) | 85.5% (inactive)
Nc1cc(=O)[nH]c(N)n1 | 119% (inactive)
CN1CCCC1CCOC(C)(c1ccccc1)c1ccc(Cl)cc1 (configuration not stated) | 67.5% (inactive)
COc1cc(CNC(=O)CCCCCCC(C)C)ccc1O | 128% (inactive)
CC1=C(/C=C/C(C)=C/C=C/C(C)=C/C(=O)O)C(C)(C)CCC1 | 70% (inactive)
N=c1nc(N2CCCCC2)cc(N)n1O | 114% (inactive)
O=C1N(c2ccccc2)c2ccccc2C1(Cc1ccncc1)Cc1ccncc1 | 96.6% (inactive)
N[C@@H](Cc1c[nH]c2ccc(O)cc12)C(=O)O | 81.8% (inactive)
C/C=C1\C(=O)CC2C3CCC4=CC(=O)CC[C@]4(C)C3CC[C@]12C (some centres not stated) | 102% (inactive)
CN1C[C@@H](CS(=O)(=O)N(C)C)C[C@@H]2c3cccc4c3c(cn4C)C[C@H]21 | 103% (inactive)
NCCCC(=O)O | 109% (inactive)
CCCCOC(=O)NS(=O)(=O)c1sc(CC(C)C)cc1-c1ccc(Cn2c(CC)nc3c(C)cc(C)nc32)cc1 | 89% (inactive)
